Experimental data reported in US20240261274A1, “TREATMENT OF MYC-DRIVEN CANCERS WITH GSPT1 DEGRADERS” (MONTE ROSA THERAPEUTICS, INC., priority 2021, published 2024).

Legend:
[1] = target: GSPT1 (Homo sapiens, UniProt P15170+Q96SW2); experiment: GSPT1 degradation by western blotting in NSCLC cell lines (compound 210); type: cell-based; parameters: endogenous in cells; settings: NCI-H1155 and ABC-1 cells, six hours
Protocol: The anti-proliferative activity of compound 210 was tested on representative N-Myc high and N-Myc low cell lines (NCI-H1155, ABC-1 and EBC-1, NCI-H2023, respectively) following treatment with compound for 72 hours. Cells were sub-cultures as recommended by the providers (ATCC, DSMZ) and incubated at 37° C., 5% CO2. All cells were authenticated and confirmed by Short Tandem Repeat (STR) profiling. Briefly, cells were seeded to the appropriate density to allow logarithmic growth over the assay period in 96-well opaque-walled clear bottom plates (from Corning, Cat. No. 3903, Lot. No. 16419061; 100 μL total volume) and incubated overnight. […] Cell viability was assessed using the CellTiter-Glo assay kit as recommended by the Manufacturer (Promega, Cat. No. G7558, Lot. No. 0000385738) and measurements performed on the EnSpire multimode plate reader (Perkin Elmer). EC50 values were determined using Prism8 (GraphPad) and the asymmetric (five-parameter) equation and least squares fit. GSPT1 levels were assessed in the NCI-H1155 and ABC-1 cell lines by densitometry analysis following treatment with compound 210 for 6 hours and western blotting analysis. […] For chemiluminescence and colorimetric signals “optimal automatic exposure” settings (3×3 binning) were employed while fluorescence was detected using 1-4 seconds exposure time to achieve best GAPDH signals and avoid overexposure. […]

[2] = test system: WSU-DLCL2 triple hit lymphoma cell line derived xenograft; experiment: WSU-DLCL2 triple hit lymphoma CDX efficacy study; type: in vivo, immunodeficient mice; settings: oral daily 3 mg/kg and 10 mg/kg
Protocol: Additionally, cell line derived xenograft (CDX) models were produced for the triple hit lymphoma cell line (WSU-DLCL2) in immunodeficient mice. Oral dosing of Compound 345 was performed daily at doses of 3 mg/kg and 10 mg/kg as well as the CHOP combination (a well-known lymphoma treatment regimen) and a no-drug vehicle control. Tumor volumes were measured (mm^3) at regular intervals over the course of up to 30 days depending on the animal.
In vivo efficacy study: NCI-H1155, MM1 S, WSU-DLCL2, DOHH-2 cells were maintained in vitro in individual medium and conditions as recommended by the providers and incubated at 37° C. in an atmosphere of 5% CO2 in air. 0.5 million (NCI-H1155), 10 million (MM1S) or 5 million (WSU-DLCL2 and DOHH-2) cells were resuspended in typically 0.1-0.2 mL of PBS with Matrigel (50:50) and were inoculated into 6-8 weeks old BALB/c nude female (NCI-H115, WSU-DLCL2), NOD/SCID (MM1S) or CB-17SCID (DOHH-2) mice and allowed to grow to 150-200 mm3 in size. […] Tumor volumes were measured at least twice weekly during the treatment period using a caliper and the volume was expressed in mm3 using the formula: V=0.5 a×b2 where a and b were the long and short diameters of the tumor, respectively. […] Data are expressed as the mean±SEM. All data was analyzed using GraphPad Prism 8.1.2 (GraphPad).

Sequence of GSPT1 (P15170 whole entry): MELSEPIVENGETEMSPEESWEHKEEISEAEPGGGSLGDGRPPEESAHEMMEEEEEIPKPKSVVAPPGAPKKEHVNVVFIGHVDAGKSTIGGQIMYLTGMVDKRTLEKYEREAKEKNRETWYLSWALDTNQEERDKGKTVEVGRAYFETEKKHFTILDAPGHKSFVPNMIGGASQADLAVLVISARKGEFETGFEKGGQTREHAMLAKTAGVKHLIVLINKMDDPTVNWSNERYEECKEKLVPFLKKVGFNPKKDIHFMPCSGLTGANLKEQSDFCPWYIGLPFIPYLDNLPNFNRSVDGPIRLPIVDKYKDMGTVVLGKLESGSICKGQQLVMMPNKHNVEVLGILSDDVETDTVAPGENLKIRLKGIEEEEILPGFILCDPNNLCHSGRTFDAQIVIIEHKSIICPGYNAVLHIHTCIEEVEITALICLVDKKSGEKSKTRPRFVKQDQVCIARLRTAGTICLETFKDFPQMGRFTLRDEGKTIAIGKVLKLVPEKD
Sequence of GSPT1 (Q96SW2 whole entry): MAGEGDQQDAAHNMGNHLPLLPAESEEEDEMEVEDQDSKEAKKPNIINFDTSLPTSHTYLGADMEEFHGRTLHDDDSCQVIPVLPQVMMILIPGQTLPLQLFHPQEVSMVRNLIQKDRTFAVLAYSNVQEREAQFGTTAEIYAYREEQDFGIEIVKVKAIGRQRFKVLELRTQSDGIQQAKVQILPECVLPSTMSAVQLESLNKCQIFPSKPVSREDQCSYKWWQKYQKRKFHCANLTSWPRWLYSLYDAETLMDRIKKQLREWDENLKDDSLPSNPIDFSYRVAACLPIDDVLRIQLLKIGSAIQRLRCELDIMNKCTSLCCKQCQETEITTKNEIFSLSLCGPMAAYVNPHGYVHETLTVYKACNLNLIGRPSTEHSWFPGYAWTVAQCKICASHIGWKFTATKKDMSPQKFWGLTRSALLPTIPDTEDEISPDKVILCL
Sequence of GSPT1 (Q16531 whole entry partner): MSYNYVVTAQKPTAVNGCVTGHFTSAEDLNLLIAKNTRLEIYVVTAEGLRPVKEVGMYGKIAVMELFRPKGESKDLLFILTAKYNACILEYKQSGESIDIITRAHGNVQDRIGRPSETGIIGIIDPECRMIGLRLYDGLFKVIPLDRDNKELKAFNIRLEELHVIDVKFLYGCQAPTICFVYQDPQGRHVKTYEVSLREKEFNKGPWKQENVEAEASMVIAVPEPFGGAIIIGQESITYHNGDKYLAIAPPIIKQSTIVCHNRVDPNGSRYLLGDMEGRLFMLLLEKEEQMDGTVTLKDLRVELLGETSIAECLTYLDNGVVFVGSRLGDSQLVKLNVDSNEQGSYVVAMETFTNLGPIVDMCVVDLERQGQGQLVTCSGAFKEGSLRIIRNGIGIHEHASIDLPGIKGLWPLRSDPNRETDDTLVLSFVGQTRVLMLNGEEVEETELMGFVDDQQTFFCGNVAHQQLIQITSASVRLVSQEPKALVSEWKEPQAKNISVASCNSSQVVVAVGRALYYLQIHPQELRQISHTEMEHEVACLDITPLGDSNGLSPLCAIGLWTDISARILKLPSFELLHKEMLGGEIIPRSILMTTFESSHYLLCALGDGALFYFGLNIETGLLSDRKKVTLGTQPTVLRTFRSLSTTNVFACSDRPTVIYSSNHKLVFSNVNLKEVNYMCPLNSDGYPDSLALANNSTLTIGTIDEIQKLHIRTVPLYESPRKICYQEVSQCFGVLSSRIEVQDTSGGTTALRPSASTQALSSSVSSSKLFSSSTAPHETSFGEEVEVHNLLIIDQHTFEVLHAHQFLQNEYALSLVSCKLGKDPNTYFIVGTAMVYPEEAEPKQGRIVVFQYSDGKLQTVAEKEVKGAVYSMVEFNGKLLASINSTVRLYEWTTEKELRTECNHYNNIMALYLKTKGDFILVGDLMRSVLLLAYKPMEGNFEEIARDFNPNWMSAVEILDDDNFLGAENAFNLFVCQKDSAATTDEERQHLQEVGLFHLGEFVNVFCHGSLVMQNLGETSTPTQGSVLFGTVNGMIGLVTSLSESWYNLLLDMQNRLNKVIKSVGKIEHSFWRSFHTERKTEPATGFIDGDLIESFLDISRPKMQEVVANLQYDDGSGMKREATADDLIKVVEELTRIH

Row | Structure (SMILES) | extent of GSPT1 degradation [1] | tumor volume [2]
1 | Cc1ccc(NC(=O)OCc2ccc3c(c2)C(=O)N(C2CCC(=O)NC2=O)C3)cc1Cl (centres unmarked) [Compound 210] | Complete degradation of GSPT1 | –
2 | O=C1CCC(N2Cc3ccc(COC(=O)Nc4cc(OC(F)(F)F)ccc4F)cc3C2=O)C(=O)N1 (centres unmarked) [Compound 345, (2-(2,6-dioxopiperidin-3-yl)-3-oxoisoindolin-5-yl)methyl(2-fluoro-5-(trifluoromethoxy)phenyl)carbamate] | – | anti-tumor activity
